{"source": "patent US5608143A", "about": "“External regulation of gene expression” (E. I. Du Pont de Nemours and Company, priority 1994, dated 1997)", "key": {"2-2 gene (In 2-2 mRNA)": {"tested_on": "2-2 gene (In 2-2 mRNA)", "experiment": "RNA slot blot / Northern analysis of 2-2 mRNA in roots of chemically treated corn", "assay_type": "in vivo, corn (Missouri 17)", "parameters": "In2-2 induction level: key to the marks not given beside the values", "method": "Details of the techniques used to perform the procedures used in Example 2 are presented in Example 1. The cDNA library made using poly(A)^+ RNA from the roots of N-(aminocarbonyl)-2-chlorobenzenesulfonamide-treated Missouri 17 corn plants (described in Example 1) was analyzed for additional cDNA clones representing mRNAs induced by substituted benzenesulfonamides. […] This colony was designated In 2-2.\nA small scale plasmid preparation was performed on the plasmid contained in colony In 2-2. This plasmid was designated pIn 2-2. An aliquot of pIn 2-2 was nick translated as described earlier. A slot blot containing total RNA from N-(aminocarbonyl)-2-chlorobenzenesulfonamide-treated and untreated roots was prepared and probed with nick-translated pIn 2-2 as described for pIn 2-1 in Example 1.\nThe pIn 2-2 small scale plasmid preparation was digested to completion with Pst I and analyzed by agarose gel electrophoresis. The cDNA insert of the plasmid was excised by Pst I as a single 1200 bp fragment. Nick-translatedpIn 2-2 was used to probe a Northern blot of RNA from both untreated and N-(aminocarbonyl)-2-chlorobenzenesulfonamide-treated roots.\nThe ability at various substituted benzenesulfonamides and related compound to induce the expression of the 2-1, 2-2, and 5-2 genes of Missouri 17 corn was evaluated. Corn seeds were germinated and grown hydroponically in 2 liter beakers as described in Example 1. On the tenth day, plants were transferred into fresh 0.5× Hoagland's solution containing the chemical to be tested. Root tissue was harvested from the plants after six hours of chemical treatment, quick-frozen by immersion in liquid N2, and stored at -80° C. until analyzed.\nDetails of the RNA isolation and slot blot analysis procedures are presented in Example 1. Total RNA was prepared from the root tissue of plants that had been treated with various chemicals using the previously described guanidine thiocyanate procedure. Replicate blots, each consisting of 2 μg of total RNA from tissues treated with each of the chemicals shown in tables 8 and 9, were prepared on nitrocellulose membranes using a Minifold II® Slot-blotter (Schleicher & Schuell) following the manufacturer's recommeneded procedure. Replicate blots were prehybridized and hybridized with cDNA probes made by nick translation of the purified cDNA inserts from plasmid pIn 2-1, pIn 2-2-3, and pIn 5-2. Slot blots were washed as described in Example 1 and exposed to Kodak X-OMAT XAR-5 film for 24 hours at -80° C. using a single Du Pont Lightning Plus intensifying screen. Film was developed using a Kodak X-OMAT film processor. The abililty of a chemical to induce the mRNA encoded by the three inducible genes was evaluated in one of two ways. Qualitative evaluation was performed by direct visual comparison of the autoradiographic signal intensities on the films for the hybridization of each probe to the different RNA samples. Quantitative evaluation was performed by cutting each slot containing hybridized RNA from the blot, immersing it in 2 ml of Du Pont ECONOFLUOR® scintillation cocktail and counting the radioactivity in each slot in a scintillation counter. The net amount of radioactivity hybridizing to N-(aminocarbonyl)-2-chlorobenzenesulfonamide-treated RNA after subtraction of radioactivity hybridizing to untreated RNA is presented in Table 15."}, "[1]": {"tested_on": "2-2 promoter/HRA recombinant gene", "experiment": "RNAse protection analysis of HRA (ALS) mRNA in leaves of tobacco transformed with 2-2 promoter/HRA gene", "assay_type": "in vivo", "conditions": "excised leaves, 200 mg/l in 0.5× Hoagland's, 16-24 hours", "method": "The expression of stable cytoplasmic mRNA transcribed from the wild type and transforming ALS genes in transformed plants were measured by RNAse protection analysis. In this manner, expression of the pDuPS22 construction was distinguished from the wild type ALS genes by virtue of the fact that the pDUPS22 transcript has a 2-2 untranslated leader that is divergent from the untranslated leader of the native ALS genes. […]\nRNAse protection assays were carried out using the protocol of Zinn et al. (Zinn et al. Cell (1983) 34, 865-879). […] The sizes of the labelled RNA fragments remaining after digestion with RNAse T1 and RNAse A were determined by electrophoresis using 6% denaturing polyacrylamide gels."}, "[2]": {"tested_on": "petunia P6.1 gene (P6 RNA)", "experiment": "Northern / RNAse protection analysis of P6 RNA in roots of chemically treated petunia", "assay_type": "in vivo, Petunia (Mitchell)"}, "[3]": {"conditions": "hydroponic treatment, corn roots"}, "[4]": {"conditions": "hydroponic 200 mg/l, sampled at 2, 4, 6 and 22 hours, roots"}}, "data": [{"molecule": "NC(=O)NS(=O)(=O)c1ccccc1Cl", "values": [{"measurement": "In2-2 induction level", "setting": "2-2 gene (In 2-2 mRNA); hydroponic application, 100 ppm", "value": "+++++"}, {"measurement": "hybridization of pIn 2-2 to root RNA (Northern blot)", "setting": "2-2 gene (In 2-2 mRNA); [3]", "value": "present only in RNA from the roots"}, {"measurement": "hybridization of pIn 2-2 to root RNA (slot blot)", "setting": "2-2 gene (In 2-2 mRNA); [3]", "value": "hybridizes strongly"}, {"measurement": "induction of HRA mRNA (RNAse protection)", "setting": "[1]", "value": "induction of high levels of stable cytoplasmic HRA mRNA"}, {"measurement": "hybridization of P6.1 probe to root RNA (Northern blot)", "setting": "[2]; hydroponic 0.2 g per liter, six hours, petunia roots", "value": "hybridized to an 800 bp message"}, {"measurement": "time at which P6 RNA reached maximum levels", "setting": "[2]; [4]", "value": "≤ 6", "unit": "h"}, {"measurement": "time at which P6 RNA was detectable", "setting": "[2]; [4]", "value": "≤ 2", "unit": "h"}, {"measurement": "RNAse protection of P6.1 probes by root RNA", "setting": "[2]; petunia roots, treated vs untreated plants", "value": "Protected fragments of 110 bp were observed in induced but not control RNA"}]}]}
